pIC50: −log10 of the molar value. The source made the active and inactive calls. The rule behind the calls is not given here.
What was measured:
Acetylcholinesterase = Acetylcholinesterase (Electrophorus electricus, UniProt O42275); assay: Inhibition of electric eel AChE using ATC iodide substrate by DTNB based assay; conditions: for pIC50: read-out: IC50; for IC50: read-out: pIC50 (converted)
[1] = target: Cholinesterase (Equus caballus) (UniProt P81908); assay: Inhibition of equine serum BChE at 50 uM using ATC iodide substrate by DTNB based assay
Cholinesterase (Equus caballus), sequence (P81908 whole entry): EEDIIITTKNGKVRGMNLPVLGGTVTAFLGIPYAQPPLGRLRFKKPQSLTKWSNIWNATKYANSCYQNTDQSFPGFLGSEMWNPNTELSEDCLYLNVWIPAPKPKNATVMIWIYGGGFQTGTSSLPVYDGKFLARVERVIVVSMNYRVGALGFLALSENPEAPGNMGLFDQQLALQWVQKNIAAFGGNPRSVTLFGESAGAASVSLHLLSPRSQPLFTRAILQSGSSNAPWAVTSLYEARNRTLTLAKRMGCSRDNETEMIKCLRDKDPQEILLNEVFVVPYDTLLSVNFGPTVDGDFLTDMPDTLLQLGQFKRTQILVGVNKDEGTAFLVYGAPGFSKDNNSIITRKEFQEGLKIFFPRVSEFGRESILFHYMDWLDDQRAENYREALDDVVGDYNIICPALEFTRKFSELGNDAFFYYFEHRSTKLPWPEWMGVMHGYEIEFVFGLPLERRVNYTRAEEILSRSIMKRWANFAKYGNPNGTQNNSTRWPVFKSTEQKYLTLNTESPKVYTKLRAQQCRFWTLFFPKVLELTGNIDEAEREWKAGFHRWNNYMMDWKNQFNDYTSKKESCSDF

[2] = Selectivity index, ratio of IC50 for electric eel AChE to IC50 for quine serum BChE
Cholinesterase = Cholinesterase (Equus caballus, UniProt P81908); assay: Inhibition of equine serum BChE using ATC iodide substrate by DTNB based assay; conditions: for pIC50: read-out: IC50; for IC50: read-out: pIC50 (converted)
Cholinesterase, sequence (P81908 whole entry): as above

[3] = target: Acetylcholinesterase (Electrophorus electricus) (UniProt O42275); assay: Inhibition of electric eel AChE at 50 uM using ATC iodide substrate by DTNB based assay
Acetylcholinesterase (Electrophorus electricus), sequence (O42275 24-633 limits assumed): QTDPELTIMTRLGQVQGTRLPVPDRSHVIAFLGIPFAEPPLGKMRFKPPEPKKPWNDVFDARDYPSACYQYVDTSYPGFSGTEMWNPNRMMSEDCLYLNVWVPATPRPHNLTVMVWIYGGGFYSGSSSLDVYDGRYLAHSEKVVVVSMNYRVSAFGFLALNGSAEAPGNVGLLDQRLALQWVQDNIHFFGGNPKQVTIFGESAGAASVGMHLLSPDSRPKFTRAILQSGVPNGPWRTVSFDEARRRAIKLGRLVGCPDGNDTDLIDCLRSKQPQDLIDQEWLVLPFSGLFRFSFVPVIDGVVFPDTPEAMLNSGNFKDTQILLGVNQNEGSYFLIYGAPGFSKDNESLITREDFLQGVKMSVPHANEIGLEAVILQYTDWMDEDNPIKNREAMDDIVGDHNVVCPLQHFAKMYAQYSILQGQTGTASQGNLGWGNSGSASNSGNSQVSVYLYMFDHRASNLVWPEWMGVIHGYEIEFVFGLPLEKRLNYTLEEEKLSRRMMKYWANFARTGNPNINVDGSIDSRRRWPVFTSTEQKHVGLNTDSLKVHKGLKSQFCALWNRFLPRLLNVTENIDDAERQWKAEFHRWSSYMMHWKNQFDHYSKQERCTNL

HT-22 [4] = assay: Neuroprotective activity in mouse HT22 cells assessed as reduction in glutamate-induced cytotoxicity at 5 to 25 uM by MTT assay; type: functional, cell-based
HT-22 [5] = assay: Toxicity against mouse HT22 cells assessed as reduction in cell viability at 1 to 25 uM by MTT assay; type: cell-based; conditions: ht-22, 25 µM
[6] = Antioxidant activity assessed as AAPH-induced peroxyl radicals scavenging activity by measuring Trolox equivalents by oxygen radical absorbance capacity-fluorescein assay; type: physicochemical
HT-22 [7] = assay: Toxicity against mouse HT22 cells assessed as reduction in cell viability at 25 uM by MTT assay; type: cell-based; conditions: ht-22, 25 µM
[8] = target: Cholinesterase (Equus caballus) (UniProt P81908); assay: Inhibition of equine serum BChE at 100 uM using ATC iodide substrate by DTNB based assay
HT-22 [9] = assay: Neuroprotective activity in mouse HT22 cells assessed as reduction in glutamate-induced cytotoxicity at 1 to 25 uM by MTT assay; type: functional, cell-based
[10] = target: Acetylcholinesterase (Electrophorus electricus) (UniProt O42275); assay: Inhibition of electric eel AChE assessed as rate constant of carbamoyl-enzyme formation pre-incubated for 2 to 20 mins by enzyme kinetic assay
[11] = target: Cholinesterase (Equus caballus) (UniProt P81908); assay: Inhibition of equine serum BChE assessed as stability constant of inhibitor-enzyme complex pre-incubated for 2 to 20 mins by enzyme kinetic assay
[12] = target: Acetylcholinesterase (Electrophorus electricus) (UniProt O42275); assay: Inhibition of electric eel AChE assessed as stability constant of inhibitor-enzyme complex pre-incubated for 2 to 20 mins by enzyme kinetic assay
[13] = target: Cholinesterase (Equus caballus) (UniProt P81908); assay: Inhibition of equine serum BChE assessed as rate constant of carbamoyl-enzyme formation pre-incubated for 2 to 20 mins by enzyme kinetic assay
[14] = target: Acetylcholinesterase (Homo sapiens) (UniProt P22303); assay: Inhibition of human erythrocyte AChE pre-incubated for 2 mins by enzyme kinetic assay
Acetylcholinesterase (Homo sapiens), sequence (P22303 whole entry): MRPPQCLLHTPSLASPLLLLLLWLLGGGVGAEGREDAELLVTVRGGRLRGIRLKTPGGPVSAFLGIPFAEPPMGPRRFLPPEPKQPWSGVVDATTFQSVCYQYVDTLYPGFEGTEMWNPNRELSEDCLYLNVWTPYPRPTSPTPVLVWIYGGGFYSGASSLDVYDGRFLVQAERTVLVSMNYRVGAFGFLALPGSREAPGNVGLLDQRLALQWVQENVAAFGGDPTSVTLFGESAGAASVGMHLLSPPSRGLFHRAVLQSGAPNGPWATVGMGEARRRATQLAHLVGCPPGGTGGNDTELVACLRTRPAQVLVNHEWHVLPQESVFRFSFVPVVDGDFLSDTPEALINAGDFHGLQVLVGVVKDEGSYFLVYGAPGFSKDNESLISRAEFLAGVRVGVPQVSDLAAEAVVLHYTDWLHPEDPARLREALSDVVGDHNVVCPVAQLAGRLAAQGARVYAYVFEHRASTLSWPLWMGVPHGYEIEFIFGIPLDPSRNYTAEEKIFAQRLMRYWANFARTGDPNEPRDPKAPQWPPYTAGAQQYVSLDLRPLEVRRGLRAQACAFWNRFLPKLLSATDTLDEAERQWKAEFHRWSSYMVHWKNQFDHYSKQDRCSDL

[15] = target: Cholinesterase (Equus caballus) (UniProt P81908); assay: Inhibition of equine serum BChE assessed as rate constant of carbamoyl-enzyme formation pre-incubated for 80 mins by enzyme kinetic assay
[16] = target: Cholinesterase (Equus caballus) (UniProt P81908); assay: Time dependent inhibition of equine serum BChE at 25 to 250 nM; conditions: TDE = time-dependent effect
[17] = target: Acetylcholinesterase (Homo sapiens) (UniProt P22303); assay: Inhibition of human erythrocyte AChE pre-incubated for 20 mins by enzyme kinetic assay
[18] = target: Acetylcholinesterase (Electrophorus electricus) (UniProt O42275); assay: Inhibition of electric eel AChE at 100 uM using ATC iodide substrate by DTNB based assay
[19] = target: Cholinesterase (Equus caballus) (UniProt P81908); assay: Time dependent inhibition of equine serum BChE at 5 to 100 nM; conditions: TDE = time-dependent effect
HT-22 [20] = assay: Neuroprotective activity in mouse HT22 cells assessed as reduction in glutamate-induced cytotoxicity at 10 to 25 uM by MTT assay; type: functional, cell-based
HT-22 [21] = assay: Neuroprotective activity in mouse HT22 cells assessed as reduction in glutamate-induced cytotoxicity at 25 uM by MTT assay; type: functional, cell-based
HT-22 [22] = assay: Toxicity against mouse HT22 cells assessed as reduction in cell viability at 5 uM by MTT assay; type: cell-based; conditions: ht-22, 5 µM

Acetylcholinesterase, sequence (O42275 whole entry): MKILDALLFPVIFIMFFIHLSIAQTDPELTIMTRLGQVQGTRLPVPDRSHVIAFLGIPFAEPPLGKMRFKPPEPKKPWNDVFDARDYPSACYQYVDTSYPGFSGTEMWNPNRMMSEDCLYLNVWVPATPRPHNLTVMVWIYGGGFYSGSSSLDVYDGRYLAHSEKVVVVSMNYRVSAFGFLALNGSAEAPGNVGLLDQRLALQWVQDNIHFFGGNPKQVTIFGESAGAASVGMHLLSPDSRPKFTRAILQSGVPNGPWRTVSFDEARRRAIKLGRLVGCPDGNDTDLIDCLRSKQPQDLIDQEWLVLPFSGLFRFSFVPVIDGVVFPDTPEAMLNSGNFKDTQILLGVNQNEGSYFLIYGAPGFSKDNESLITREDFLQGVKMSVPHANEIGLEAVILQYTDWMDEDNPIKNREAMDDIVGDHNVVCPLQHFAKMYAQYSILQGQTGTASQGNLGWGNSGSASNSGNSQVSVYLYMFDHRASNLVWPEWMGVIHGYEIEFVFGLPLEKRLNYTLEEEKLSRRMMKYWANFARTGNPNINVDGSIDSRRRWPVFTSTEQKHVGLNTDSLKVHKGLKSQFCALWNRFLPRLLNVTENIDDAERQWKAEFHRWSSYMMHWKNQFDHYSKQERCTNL

Structure (SMILES) | pIC50 (Acetylcholinesterase) | Ratio IC50 [2] | pIC50 (Cholinesterase) | also measured
O=c1c2cc(OCc3ccccc3)ccc2nc2n1CCCN2 | 4.71 | 0.19 | – | IC50 (Acetylcholinesterase): 19.1 µM; inhibition [1]: 20%
COc1cccc(NC(=O)Oc2ccc3nc4n(c(=O)c3c2)CCCN4C)c1 | 5.26 | 0.33 | 4.90 | –
O=c1c2cc(O)ccc2nc2n1CCCN2Cc1ccccc1 | – | – | – | inhibition [3]: 41%; Activity (HT-22 [4]): Active; inhibition [1]: 40%; Activity (HT-22 [5]): Non-toxic; Activity [6]: 1.56 equiv; Activity (HT-22 [7]): Toxic
CCCCCCCNC(=O)Oc1ccc2c(c1)CN1CCCN(C)C1=N2 | 5.47 | 5.31 | 6.20 | –
O=c1c2cc(O)ccc2nc2n1CCCN2 | 4.25 | 0.28 | – | IC50 (Acetylcholinesterase): 55 µM; inhibition [8]: 24%; Activity (HT-22 [7]): Toxic; Activity (HT-22 [9]): inactive
CC(C)c1ccc(NC(=O)Oc2ccc3nc4n(c(=O)c3c2)CCCN4)cc1 | – | 0.5 | – | inhibition [3]: 34%; inhibition [1]: 19%
CNC(=O)Oc1ccc2c(c1)[C@]1(C)CCN(C)[C@@H]1N2C | – | – | – | K [10]: 0.123 min⁻¹; K [11]: 41.1 nM; K [12]: 34.3 nM; K [13]: 0.067 min⁻¹
CC(C)c1ccc(NC(=O)Oc2ccc3c(c2)C(=O)N2CCCN=C2N3C)cc1 | 7.08 | 0.03 | 5.49 | K [10]: 0.09 min⁻¹; inhibition [14]: Active; Activity (HT-22 [5]): Non-toxic; inhibition [15]: inactive; inhibition [16]: tde; K [12]: 43.5 nM; Activity (HT-22 [9]): inactive; inhibition [17]: inactive
CN1C2=NCCCN2C(=O)c2cc(OC(=O)Nc3ccc(C(C)(C)C)cc3)ccc21 | 6.70 | < 0.004 | – | –
CC(C)c1ccc(NC(=O)Oc2ccc3nc4n(c(=O)c3c2)CCCN4C)cc1 | – | > 5.6 | 4.75 | inhibition [18]: 50%
COc1cccc(NC(=O)Oc2ccc3nc4n(c(=O)c3c2)CCCN4CCCN2CCCCC2)c1 | 5.14 | 16.2 | 6.35 | IC50 (Cholinesterase): 25.7 µM
O=c1c2cc(OCc3ccccc3)ccc2nc2n1CCCN2CCCN1CCCCC1 | 5.88 | 1.6 | 6.09 | IC50 (Acetylcholinesterase): 1.35 µM
CCCCNC(=O)Oc1ccc2c(c1)C(=O)N1CCCN=C1N2C | 5.42 | 0.09 | 4.36 | –
CC(C)c1ccc(NC(=O)Oc2ccc3nc4n(c(=O)c3c2)CCCN4Cc2ccccc2)cc1 | – | – | – | inhibition [3]: 30%; inhibition [1]: 6%
CCCCNC(=O)Oc1ccc2c(c1)CN1CCCN(C)C1=N2 | 5.50 | 2.31 | 5.87 | IC50 (Cholinesterase): 3.89 µM
CCCCNC(=O)Oc1ccc2nc3n(c(=O)c2c1)CCCN3C | 4.79 | 0.37 | 4.35 | –
CCCCCCCNC(=O)Oc1ccc2nc3n(c(=O)c2c1)CCCN3CCCN1CCCCC1 | 5.10 | 322 | 7.61 | K [11]: 1.3 nM; inhibition [19]: tde; Activity (HT-22 [5]): Non-toxic; inhibition [15]: inactive; Activity (HT-22 [9]): inactive; K [13]: 0.125 min⁻¹

Structure (SMILES) | pIC50 (Acetylcholinesterase) | Ratio IC50 [2] | pIC50 (Cholinesterase) | also measured
COc1cccc(NC(=O)Oc2ccc3c(c2)C(=O)N2CCCN=C2N3C)c1 | 5.54 | 0.06 | 4.28 | –
CCCCCCCNC(=O)Oc1ccc2nc3n(c(=O)c2c1)CCCN3C | 5.22 | 3.41 | 5.76 | –
CN1CCCN2Cc3cc(O)ccc3N=C12 | 4.80 | < 0.3 | – | inhibition [1]: 53%; Activity (HT-22 [5]): Non-toxic; Activity (HT-22 [20]): inactive; Activity [6]: 1.34 equiv; Activity (HT-22 [21]): Active; Activity (HT-22 [9]): inactive
CN1CCCn2c1nc1ccc(OCc3ccccc3)cc1c2=O | 4.81 | 0.21 | 4.09 | –
O=C1c2ccccc2NC2=NCCCN12 | 4.53 | 0.3 | – | Activity (HT-22 [22]): Toxic; inhibition [8]: 47%; Activity (HT-22 [9]): inactive
CN1CCCn2c1nc1ccc(O)cc1c2=O | – | – | – | inhibition [3]: 61%; inhibition [1]: 9%; Activity (HT-22 [5]): Non-toxic; Activity (HT-22 [20]): Active; Activity [6]: 1.54 equiv
O=c1c2cc(O)ccc2nc2n1CCCN2CCCN1CCCCC1 | 4.64 | 1 | 4.64 | Activity (HT-22 [20]): inactive
CN1C2=NCCCN2C(=O)c2cc(OCc3ccccc3)ccc21 | 6.15 | 0.03 | 4.67 | –
CC(C)c1ccc(NC(=O)Oc2ccc3nc4n(c(=O)c3c2)CCCN4CCCN2CCCCC2)cc1 | 6.11 | 3.1 | 6.60 | –
CN1C2=NCCCN2C(=O)c2cc(O)ccc21 | 4.93 | 0.21 | 4.26 | Activity (HT-22 [5]): Non-toxic; Activity (HT-22 [20]): inactive; Activity (HT-22 [9]): inactive
CCCCNC(=O)Oc1ccc2nc3n(c(=O)c2c1)CCCN3Cc1ccccc1 | – | – | – | inhibition [3]: 41%; inhibition [1]: 8%
O=c1c2cc(OCc3ccccc3)ccc2nc2n1CCCN2Cc1ccccc1 | – | – | – | inhibition [8]: 10%; inhibition [18]: 20%
CCCCCCCNC(=O)Oc1ccc2c(c1)C(=O)N1CCCN=C1N2C | 5.44 | 26.1 | 6.85 | –
CN1CCCN2Cc3cc(OCc4ccccc4)ccc3N=C12 | 6.08 | 0.2 | 5.38 | –
CCCCNC(=O)Oc1ccc2nc3n(c(=O)c2c1)CCCN3CCCN1CCCCC1 | 5.16 | 6.35 | 5.96 | –
COc1cccc(NC(=O)Oc2ccc3nc4n(c(=O)c3c2)CCCN4Cc2ccccc2)c1 | – | – | – | inhibition [3]: 35%; inhibition [1]: 11%
CCCCCCCNC(=O)Oc1ccc2nc3n(c(=O)c2c1)CCCN3Cc1ccccc1 | 4.05 | 3.51 | 4.60 | –

From ChEMBL document CHEMBL3351595, “Cyclic acyl guanidines bearing carbamate moieties allow potent and dirigible cholinesterase inhibition of either acetyl- or butyrylcholinesterase” (Bioorg Med Chem, 2014)
